From ChEMBL document CHEMBL1133542, “Adenosine deaminase inhibitors: synthesis and biological evaluation of unsaturated, aromatic, and oxo derivatives of (+)-erythro-9-(2'S-hydroxy-3'R-nonyl)adenine [(+)-EHNA]” (J Med Chem, 2000)
pKi: −log10 of the molar value.

Target: T1, Adenosine deaminase (Bos taurus, UniProt P56658)
T1 sequence (P56658 whole entry): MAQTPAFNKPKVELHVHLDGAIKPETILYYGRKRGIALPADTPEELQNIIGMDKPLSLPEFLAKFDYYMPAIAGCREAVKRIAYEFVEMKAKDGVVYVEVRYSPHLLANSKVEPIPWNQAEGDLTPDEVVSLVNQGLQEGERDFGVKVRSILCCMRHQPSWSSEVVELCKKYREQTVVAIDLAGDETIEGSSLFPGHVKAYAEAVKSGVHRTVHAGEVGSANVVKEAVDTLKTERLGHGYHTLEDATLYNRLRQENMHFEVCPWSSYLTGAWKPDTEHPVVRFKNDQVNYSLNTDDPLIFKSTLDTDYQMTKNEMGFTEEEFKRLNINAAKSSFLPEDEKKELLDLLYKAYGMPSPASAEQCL
Description: Inhibition of Adenosine deaminase (ADA) of calf intestine

Structure (SMILES)	pKi
C[C@H](O)[C@@H](COCCc1ccccc1)n1cnc2c(N)ncnc21	7.03
CCCCOC[C@H]([C@H](C)O)n1cnc2c(N)ncnc21	6.91
